“Also recorded” adds a separate entry of the source.
Columns and labels:
Format in all cases: cell-based, human
[1] = test system: CD8 T cells transduced with CAR Construct 1; test: Tcm phenotype skewing of CAR-T cells (CD62L, CCR7, CD27 surface expression); conditions: flow cytometry day 8
Experimental: Culturing cells in large-scale for phenotypic and exhaustion marker evaluation. Isolated CD8 T cells were activated in bulk on day 0 using anti-CD3/anti-CD28 beads in T cell media supplemented with IL-2. On day 1, cells were transduced with the CAR Construct and cell density was adjusted to 0.5×10^6/ml and 10^6 cells were seeded into 12-well plates in the presence of vehicle, TWS119, or DCC-2036. On day 4, cells were transferred into 6-well plates and 2 ml of T cell media was added to each well. On day 6 another 2 ml of media was added to each well. On day 8, CAR T cells were analyzed on a flow cytometer for surface expression of phenotypic markers (CD62L, CCR7, and CD27) and exhaustion markers (PD-1 and Tim-3).
To determine the effect of compound treatment on skewing towards a central memory phenotype, isolated CD8 T cells were activated in bulk on day 0 using anti-CD3/anti-CD28 beads in T cell media supplemented with IL-2. On day 1, cells were transduced with the CAR Construct 1 shown in FIG. 2 and cell density was adjusted to 0.5×10^6/ml and 10^6 cells were seeded into 12 well plates in the presence of vehicle (DMSO), TWS119 or DCC-2036 at the same concentrations. On day 4, cells were transferred into 6-well plates and 2 ml of media was added to each well. On day 6 another 2 ml of media was added to each well. On day 8, cells were analyzed on a flow cytometer for cell surface expression of CD27.
The expression of CD27 observed with vehicle treatment was defined as an MFI (mean fluorescence intensity) of 1 and the relative MFI of cells treated with compound was calculated.

[2] = test system: CD8 T cells transduced with the CAR-2 construct; test: Larger-scale (24-well GREX) CAR-T culture: viability and expansion; conditions: expanded with compound or vehicle for 6 days
Source text: The cells were transduced with the CAR-2 construct (FIG. 2) one day after activation and then replated into 24-well GREX plates with or without compounds. Half the media was replaced every two days thereafter until harvest one week post activation. Cells were activated and expanded in the presence of compound or vehicle for 6 days.

[3] = test system: viable CD8+ population; test: T cell compound screen: CCR7+CD62L+ cells in the viable CD8+ population (flow cytometry); conditions: 10 μM, about 6 days, anti-CD3/anti-CD28 beads; hit = Z-score > +2 for percent or absolute number CCR7+CD62L+ in CD8+
Source text: In Vitro T Cell Culture. Fresh leukopaks (AllCells, Alameda, CA) were obtained from healthy donors, from which T cells were negatively selected using the EasySep Human T cell Enrichment Kit (Stem Cell Technologies, Vancouver, Canada). The freshly isolated T cells were aliquoted and cryopreserved. On the day the screens were initiated, T cells were thawed and washed into X-Vivo 15 with 5% human AB serum, IL-2, pen/strep, and additional supplements. Cells were dispensed into flat-bottom 384-well plates at 5×10^5 cells/ml with anti-CD3/anti-CD28 beads. Individual compounds were added at a final concentration of 10 μM to each well from column 3 to column 22 of each plate. Positive and negative controls were added to additional wells. Cells were incubated for about 6 days at 37 degrees with 5% CO2.
Flow Cytometry. On Day 6 of culture, cells were stained with a fixable viability marker and fluorophore-conjugated antibodies: CD3, CD4, CD8, CD45RA, CD45RO, CD62L, CCR7, CD27, and CD122 (BD Biosciences, San Jose, CA; and BioLegend, San Diego, CA). Fluorescent absolute counting beads (Spherotech, Lake Forest, IL) were added just prior to acquisition. Data acquisition was performed on a BD Fortessa X-20 (BD Biosciences) and data were analyzed using Treestar software (FlowJo, Ashland, OR) and Spotfire (Tibco, Boston, MA).
These cells are characterized by expression of CCR7 and CD62L. Therefore, cells co-expressing both of these identifying markers were evaluated. Within the viable CD4+ population and viable CD8+ population, the percent of cells co-expressing CCR7 and CD62L was determined. The expression of either CD62L or CCR7 on T cells, as indicative of the desired T cell subsets, have been described as having favorable functional characteristics for CAR-T cell therapy, and potentially other adoptive T cell therapies.
The number of events in each of these gates relative to the number of absolute counting beads in each sample was calculated, defining a measure of the absolute number of naïve, stem cell memory, or central memory T cells within the CD4+ and/or CD8+ populations. A z-Score relative to the screened compound samples within each 384-well plate was calculated for each of these four values: 1) percent CCR7+CD62L+in CD4+, 2) percent CCR7+CD62L+in CD8+, 3) absolute relative number of CCR7+CD62L+in CD4+, and 4) absolute number of CCR7+CD62L+in CD8+(FIGS. 1A and 1i). Z-scores were also calculated for the percent viability of all cells within each sample and the relative absolute number of cells within each sample. A “Z-Score” is a statistical measurement of a score's relationship to the mean in a group of scores. AZ-score of 0 means the score is the same as the mean. AZ-score can also be positive or negative, indicating whether it is above or below the mean and by how many standard deviations.

[4] = test system: CD8+ T cells; test: RNA-Seq gene expression of memory T cell genes; conditions: DCC-2036 1 μM, TWS-119 10 μM, roughly 6 days, 5 donors, relative to vehicle, FIG. 5
Source text: To characterize the impact of DCC-2036 in memory cell skewing, gene expression changes for a panel of key genes, (i.e. CCR7, CD62L, etc.) previously known to be highly expressed in memory T cells were investigated. Cryopreserved CD8+ T cells from 5 different donors were thawed and washed into X-Vivo 15 with 5% human AB serum, IL-2, pen/strep, and additional supplements. Cells were dispensed into flat-bottom 384-well plates at 5×10^5 cells/ml with anti-CD3/anti-CD28 beads. Cells were either treated with DCC-2036 at a final concentration of 1 μM, TWS-119 at 10 μM, or received a vehicle (DMSO) only control treatment. Cells were incubated for roughly 6 days at 37 degrees Celsius with 5% CO2.
Post incubation, cells were lysed and RNA was isolated, fragmented and cDNA was generated in the presence of the appropriate sequencing adapters and sequencing was performed using Illumina next generation sequencing technology (NGS). RNA-Sequencing (RNA-Seq) utilizes the capabilities of NGS to not only acquire nucleotide sequence information, but also provide quantitative gene expression measurements from a given samples transcriptome. Gene transcripts were normalized to counts per million (CPM) reads per samples and relative quantitation of each gene transcript was determined for each in treatment relative to the matching vehicle control treated samples. […]

CNC(=O)c1cc(Oc2ccc(NC(=O)Nc3cc(C(C)(C)C)nn3-c3ccc4ncccc4c3)c(F)c2)ccn1 [DCC-2036, Rebastinib]
increase in the frequency of CAR-T cells expressing both CD62L and CCR7 ([1]; relative to vehicle (DMSO), FIG. 4A): 2.3 fold | increase in the expression of the differentiation marker CD27 (relative MFI) ([1]; relative to vehicle (MFI defined as 1), FIG. 4B): 2.2 fold | CAR-T cell viability ([2]; FIG. 3A): improved; also recorded: maintaining viability | CAR-T cell expansion ([2]; FIG. 3B): improved; also recorded: enhancing expansion | CD8 Hit [3]: CD8 | expression of key memory T cell genes (CCR7, CD62L etc.) [4]: increases in expression at levels similar to or greater than TWS-119 | expression of key memory T cell genes (CCR7, CD62L etc.) ([4]; listed as DCC-2036 (FT-61314)): increased expression

— US11932870B2, “Compositions and methods for immune cell modulation in adoptive immunotherapies” (Fate Therapeutics, Inc., priority 2016, dated 2024)
